{
  "source": "patent US5302599A",
  "about": "“Therapeutically useful heterocyclic indole compounds” (The Upjohn Company, priority 1992, dated 1994)",
  "key": {"dopamine D2 receptors": {"target": "dopamine D2 receptors (Rattus norvegicus, UniProt P61169)", "sequence (P61169 whole entry)": "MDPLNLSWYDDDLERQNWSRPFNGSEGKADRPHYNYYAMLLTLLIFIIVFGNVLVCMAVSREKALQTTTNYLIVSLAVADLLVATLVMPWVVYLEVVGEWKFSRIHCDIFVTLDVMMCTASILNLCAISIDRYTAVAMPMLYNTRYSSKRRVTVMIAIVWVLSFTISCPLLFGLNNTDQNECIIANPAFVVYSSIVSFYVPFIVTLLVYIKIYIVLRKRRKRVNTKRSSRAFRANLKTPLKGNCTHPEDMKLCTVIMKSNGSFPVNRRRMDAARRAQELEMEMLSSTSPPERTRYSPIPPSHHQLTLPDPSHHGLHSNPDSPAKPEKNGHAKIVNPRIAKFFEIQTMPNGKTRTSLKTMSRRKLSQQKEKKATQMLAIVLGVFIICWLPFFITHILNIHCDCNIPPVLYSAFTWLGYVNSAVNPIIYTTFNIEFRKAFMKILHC", "test": "biochemical", "assay_type": "binding", "description": "For Dopamine (D2): Inhibition of 3H-raclopride binding in rat striata homogenate. […] This test measures the ability to bind to dopamine D2 receptors."}, "[1]": {"test": "Hypothermia in mice after subcutaneous injection", "assay_type": "in vivo", "conditions": "20 min, dose required to depress temperature (2° C.) in two of four mice, Spearman-Karber; for ED50: Mus musculus, sc"}, "[2]": {"target": "T1, 5-hydroxytryptamine (HT1A) receptor (Bos taurus, UniProt F6Q2H9)", "T1 construct": "from tissue; host or cells: bovine brain homogenate", "T1 sequence (F6Q2H9 1-422)": "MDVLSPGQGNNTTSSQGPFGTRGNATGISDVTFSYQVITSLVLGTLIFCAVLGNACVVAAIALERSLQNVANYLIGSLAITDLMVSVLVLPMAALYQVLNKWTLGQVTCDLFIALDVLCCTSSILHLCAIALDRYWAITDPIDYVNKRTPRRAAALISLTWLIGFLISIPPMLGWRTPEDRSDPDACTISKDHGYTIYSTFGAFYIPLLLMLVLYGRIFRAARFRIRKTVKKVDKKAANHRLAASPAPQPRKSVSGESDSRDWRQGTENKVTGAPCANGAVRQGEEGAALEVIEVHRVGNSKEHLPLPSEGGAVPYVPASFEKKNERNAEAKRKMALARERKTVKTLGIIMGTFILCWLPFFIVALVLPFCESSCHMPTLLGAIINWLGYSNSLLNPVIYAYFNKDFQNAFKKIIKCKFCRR", "test": "Inhibition of 3H-8-OH-DPAT binding in a bovine brain homogenate (5HT1A binding)"}, "[3]": {"conditions": "3H-raclopride, rat striata homogenate, read-out: Dopamine D2-Receptor Binding IC50"}, "[4]": {"conditions": "mice, subcutaneous, read-out: Hypothermia ED50"}, "[5]": {"conditions": "3H-8-OH-DPAT, read-out: 5HT1A Binding IC50"}, "[6]": {"conditions": "read-out: Hypothermia ED50, mice, subcutaneous"}, "[7]": {"conditions": "5HT1A Binding IC50, 3H-8-OH-DPAT"}},
  "note": "Counter-ions that a name gives are not always drawn. Like-named read-outs stand apart in the source and are kept apart here.",
  "data": [
    {"compound": "Cl.O=C(NCCCc1ccccc1)c1cc2c3c(ccc2[nH]1)OCC(CNCCCc1ccccc1)O3", "note": "(stereo not shown) [XIk, 7H-1,4-Dioxino(2,3-e)indole-8-carboxamide, 2,3-dihydro-N-(3-phenylpropyl)-2-(((3-phenylpropyl)amino)methyl)-, monohydrochloride]", "values": [
      {"measurement": "IC50", "setting": "dopamine D2 receptors; [3]", "result": 0.35, "unit": "µM"},
      {"measurement": "ED50", "setting": "[1]; [4]", "result": "> 30", "unit": "mg/kg"},
      {"measurement": "IC50", "setting": "[2]; [5]", "result": 0.026, "unit": "µM"}
    ]},
    {"compound": "CCOC(=O)C1CCN(CC2COc3ccc4[nH]c(C(=O)OC)cc4c3O2)CC1", "note": "(stereo not shown) [XIh, 7H-1,4-Dioxino(2,3-e)indole-8-carboxylic acid, 2-((4-(ethoxycarbonyl-1-piperidinyl)methyl)-2,3-dihydro-, methyl ester, monohydrochloride]", "values": [
      {"measurement": "IC50", "setting": "dopamine D2 receptors; [3]", "result": 0.147, "unit": "µM"},
      {"measurement": "ED50", "setting": "[1]; [4]", "result": "> 30", "unit": "mg/kg"},
      {"measurement": "IC50", "setting": "[2]; [5]", "result": 0.0096, "unit": "µM"}
    ]},
    {"compound": "COC(=O)C1Cc2c(ccc3c2OC(CN2CCC4(CC2)C(=O)NCN4c2ccccc2)CO3)N1", "note": "(stereo not shown) [a', 7H-1,4-Dioxino(2,3-e)indole-8-carboxylic acid 2,3,8,9-tetrahydro-2-((4-oxo-1-phenyl-1,3,8-triazaspiro(4.5)dec-8-yl)methyl)-, methyl ester]", "values": [
      {"measurement": "ED50", "setting": "[1]; [6]", "result": 17.3, "unit": "mg/kg"}
    ]},
    {"compound": "N#Cc1cc2c3c(ccc2[nH]1)OCC(CN1CCC2(CC1)C(=O)NCN2c1ccccc1)O3", "note": "(stereo not shown) [XId, 7H-1,4-Dioxino(2,3-e)indole-8-carbonitrile, 2,3-dihydro-2-((4-oxo-1-phenyl-1,3,8-triazaspiro(4.5)dec-8-yl)methyl)-]", "values": [
      {"measurement": "IC50", "setting": "dopamine D2 receptors", "result": 0.00153, "unit": "µM"},
      {"measurement": "ED50", "setting": "[1]; [6]", "result": 0.01, "unit": "mg/kg"},
      {"measurement": "IC50", "setting": "[2]; [7]", "result": 0.00017, "unit": "µM"}
    ]},
    {"compound": "C=CCn1c(C(=O)OC)cc2c3c(ccc21)OCC(CN1CCC2(CC1)C(=O)NCN2c1ccccc1)O3", "note": "(stereo not shown) [XIn, 7H-1,4-Dioxino(2,3-e)indole-8-carboxylic acid, 2,3-dihydro-2-((4-oxo-1-phenyl-1,3,8-triazaspiro(4.5)dec-8-yl)methyl)-7-(2-propenyl)-, methyl ester]", "values": [
      {"measurement": "IC50", "setting": "[2]; [7]", "result": 0.268, "unit": "µM"}
    ]},
    {"compound": "COC(=O)c1cc2c3c(ccc2[nH]1)OCC(CN1CCC2(CC1)C(=O)NCN2c1ccccc1)O3", "note": "(stereo not shown) [XIa, 2,3-dihydro-2-((4-oxo-1-phenyl-1,3,8-triazaspiro(4.5)-dec-8-yl)methyl)-7H-1,4-dioxino(2,3-e)indol-8-methyl ester]", "values": [
      {"measurement": "ED50", "setting": "[1]; [6]", "result": 30, "unit": "mg/kg"},
      {"measurement": "IC50", "setting": "[2]; [7]", "result": 0.00047, "unit": "µM"}
    ]},
    {"compound": "CCCCOC(=O)c1cc2c3c(ccc2[nH]1)OCC(CN1CCC2(CC1)C(=O)NCN2c1ccccc1)O3", "note": "(stereo not shown) [XIe, 7H-1,4-Dioxino(2,3-e)indole-8-carboxylic acid, 2,3-dihydro-2-((4-oxo-1-phenyl-1,3,8-triazaspiro(4.5)dec-8-yl)methyl)-, butyl ester]", "values": [
      {"measurement": "IC50", "setting": "[2]; [7]", "result": 0.0135, "unit": "µM"}
    ]},
    {"compound": "COC(=O)c1cc2c3c(ccc2[nH]1)OCC(CN1CCC(Nc2ccccc2)(C(N)=O)CC1)O3", "note": "(stereo not shown) [XIi, 7H-1,4-Dioxino(2,3-e)indole-8-carboxylic acid, 2-((4(aminocarbonyl)-4-(phenylamino)-1-piperidinyl)methyl)-2,3-dihydro-, methyl ester]", "values": [
      {"measurement": "IC50", "setting": "[2]; [7]", "result": 0.0793, "unit": "µM"}
    ]},
    {"compound": "NC(=O)c1cc2c3c(ccc2[nH]1)OCC(CN1CCC2(CC1)C(=O)NCN2c1ccccc1)O3", "note": "(stereo not shown) [XIc, 7H-1,4-Dioxino(2,3-e)indole-8-carboxamide, 2,3-dihydro-2-((4-oxo-1-phenyl-1,3,8-triazaspiro(4.5)dec-8-yl)methyl)-]", "values": [
      {"measurement": "IC50", "setting": "[2]; [7]", "result": 0.00029, "unit": "µM"}
    ]},
    {"compound": "O=C(OCc1ccccc1)c1cc2c3c(ccc2[nH]1)OCC(CN1CCC2(CC1)C(=O)NCN2c1ccccc1)O3", "note": "(stereo not shown) [XIf, 7H-1,4-Dioxino(2,3-e)indole-8-carboxylic acid, 2,3-dihydro-2-((4-oxo-1-phenyl-1,3,8-triazaspiro(4.5)dec-8-yl)methyl)-, phenylmethyl ester]", "values": [
      {"measurement": "IC50", "setting": "dopamine D2 receptors; [3]", "result": 0.19, "unit": "µM"},
      {"measurement": "ED50", "setting": "[1]; [6]", "result": 17.3, "unit": "mg/kg"},
      {"measurement": "IC50", "setting": "[2]; [7]", "result": 0.0084, "unit": "µM"}
    ]},
    {"compound": "COC(=O)c1cc2c3c(ccc2[nH]1)OCC(CNCCCc1ccccc1)O3", "note": "(stereo not shown) [XIj, 7H-1,4-Dioxino(2,3-e)indole-8-carboxylic acid, 2,3-dihydro-2-((3-phenylpropyl)amino)methyl)-, methyl ester, monohydrochloride]", "values": [
      {"measurement": "IC50", "setting": "dopamine D2 receptors; [3]", "result": 0.0546, "unit": "µM"},
      {"measurement": "ED50", "setting": "[1]; [4]", "result": 1.3, "unit": "mg/kg"},
      {"measurement": "IC50", "setting": "[2]; [5]", "result": 0.004, "unit": "µM"}
    ]},
    {"compound": "C=CCN1CN(c2ccccc2)C2(CCN(CC3COc4ccc5c(cc(C(=O)OC)n5CC=C)c4O3)CC2)C1=O", "note": "(stereo not shown) [XIo, 7H-1,4-Dioxino(2,3-e)indole-8-carboxylic acid, 2,3-dihydro-2-((4-oxo-1-phenyl-3-(2-propenyl)-1,3,8-triazaspiro(4.5)dec-8-yl)methyl)-7-(2-propenyl)-, methyl ester]", "values": [
      {"measurement": "IC50", "setting": "dopamine D2 receptors", "result": 0.0973, "unit": "µM"},
      {"measurement": "IC50", "setting": "[2]; [7]", "result": 0.28, "unit": "µM"}
    ]},
    {"compound": "O=C1NCN(c2ccccc2)C12CCN(CC1COc3ccc4[nH]ccc4c3O1)CC2", "note": "(stereo not shown) [XIm, 1,3,8-Triazaspiro(4.5)decan-4-one, 8-((2,3-dihydro-7H-1,4-dioxino(2,3-e)indol-2-yl)methyl)-1-phenyl]", "values": [
      {"measurement": "IC50", "setting": "dopamine D2 receptors", "result": 0.00013, "unit": "µM"},
      {"measurement": "IC50", "setting": "[2]; [7]", "result": 0.001, "unit": "µM"}
    ]},
    {"compound": "C=CCN1CN(c2ccccc2)C2(CCN(CC3COc4ccc5[nH]c(C(=O)OC)cc5c4O3)CC2)C1=O", "note": "(stereo not shown) [XIp, 7H-1,4-Dioxino(2,3-e)indole-8-carboxylic acid, 2,3-dihydro-2-((4-oxo-1-phenyl-3-(2-propenyl)-1,3,8-triazaspiro(4.5)dec-8-yl)methyl)-, methyl ester]", "values": [
      {"measurement": "IC50", "setting": "[2]; [7]", "result": 0.011, "unit": "µM"}
    ]},
    {"compound": "O=C(O)c1cc2c3c(ccc2[nH]1)OCC(CN1CCC2(CC1)C(=O)NCN2c1ccccc1)O3", "note": "(stereo not shown) [XIb]", "values": [
      {"measurement": "ED50", "setting": "[1]; [6]", "result": 17.3, "unit": "mg/kg"},
      {"measurement": "IC50", "setting": "[2]; [7]", "result": 0.0363, "unit": "µM"}
    ]},
    {"compound": "O=C1NCN(c2ccccc2)C12CCN(CC1COc3ccc4[nH]c(CO)cc4c3O1)CC2", "note": "(stereo not shown) [XIl, 1,3,8-Triazaspiro(4.5)decan-4-one, 8-((2,3-dihydro-8-(hydroxymethyl)-7H-1,4-dioxino(2,3-e)indol-2-yl)methyl)-1-phenyl-]", "values": [
      {"measurement": "IC50", "setting": "[2]; [7]", "result": 0.0023, "unit": "µM"}
    ]},
    {"compound": "COC(=O)c1cc2c3c(ccc2[nH]1)OCC(CN1CCC(n2c(=O)[nH]c4ccccc42)CC1)O3", "note": "(stereo not shown) [XIg, 7H-1,4-Dioxino(2,3-e)indole-8-carboxylic acid, 2-((4-(2,3-dihydro-2-oxo-1H-benzimidazol-1-yl)-1-piperidinyl)methyl)-2,3-dihydro-, methyl ester, monohydrochloride]", "values": [
      {"measurement": "IC50", "setting": "[2]; [7]", "result": 0.0037, "unit": "µM"}
    ]},
    {"compound": "O=C(O)c1cc2c3c(ccc2[nH]1)OCC(CN1CCC2(CC1)C(=O)NCN2c1ccccc1)O3", "note": "(stereo not shown) [b']", "values": [
      {"measurement": "IC50", "setting": "dopamine D2 receptors", "result": 0.0522, "unit": "µM"},
      {"measurement": "Hypothermia ED50", "setting": "[1]; mice, subcutaneous", "result": 30.0, "unit": "mg/kg"},
      {"measurement": "IC50", "setting": "[2]; [7]", "result": 0.0247, "unit": "µM"}
    ]}
  ]
}
